For one molecule, IC50 results are on record in USH1142H, “Optically active cyclobutyl pyrimidine” (priority 1990, dated 1993).

The structures appear in SMILES notation.

The subject of experiment [1] is HSV-1 (herpes simplex virus type 1, strain Schooler). Nature of the experiment: HSV-1 antiviral assay (plaque reduction in WI-38 cell culture monolayers). The note with it: Human alphaherpesvirus 1, 96 h; HSV-1 strain Schooler; WI-38 monolayers; 4 days incubation at 37° C.; at least a 50% plaque reduction compared to virus controls; read-out: ID50 (the source's name). The class given is cell-based. Here is the method: (§1) Assays were performed in cell culture systems to determine the concentrations of compounds that are effective in […] several kinds of viral infections. The assays are described below, and the results are presented in Table 1. |HSV-1 (herpes simplex virus type 1, strain Schooler), VZV |Cell Culture Assays: |HSV-1 and VZV antiviral assays: Virus was adsorbed to |WI-38 cell culture monolayers in 6 well culture plates (Costar, |Cambridge, MA) for 1 hour prior to addition of maintenance |medium containing duplicate dilutions of the test compound. |Inhibition of plaque development was evaluated on fixed and |stained monolayers after 4 days incubation at 37° C. for HSV-1 |and after 6-7 days incubation at 37° C. for VZV. ID50 values |were determined from the drug concentration which conferred at |least a 50% plaque reduction compared to virus controls.

Experiment [2] concerns VZV (varicella zoster virus, strain ELLEN). In words: VZV antiviral assay (plaque reduction in WI-38 cell culture monolayers). It is filed as cell-based. The note with it: Human alphaherpesvirus 3, WI-38 monolayers, 6-7 days incubation at 37° C., at least a 50% plaque reduction compared to virus controls, read-out: ID50 (the source's name). Here is the method: as §1, with “Schooler), VZV |(varicella zoster virus, strain ELLEN). |Cell Culture” for “Schooler), VZV |Cell Culture”

Consider `O=c1[nH]c(=O)n([C@@H]2C[C@H](CO)[C@H]2CO)cc1/C=C/Br` [Compound 1, [1R-(1α(E),2β,3α)]-1-[2,3-bis(hydroxymethyl)cyclobutyl]-5-(2-bromoethenyl)-2,4(1H,3H)-pyrimidinedione], for which the IC50 was 300 nM in experiment [1] and 60 to 150 nM in experiment [2].
